Experimental data taken from patent publication US20180087086A1, “CELL EGRESS AND INVASION INHIBITORS AND THEIR USE AS ANTIPARASITICAL AGENTS” (THE JOHNS HOPKINS UNIVERSITY, priority 2015, published 2018).

Columns and labels:
sporozoites [1] = test: sporozoite viability, LIVE/DEAD fixable violet assay; assay type: cell-based
Excerpt: However, the viability decrease is not high enough to account for the levels of non-gliding sporozoites observed in the gliding assays.

sporozoites [2] = test: gliding motility assay with compound washout (reversibility); assay type: cell-based
Method: FIG. 13 B is a series of photomicrographs that show representative images from slides of gliding sporozoites. DMSO treated sporozoites (a, upper left) with circular gliding pattern versus (b, upper right) pyrazole-urea compound treated sporozoites with a unique wavy line gliding pattern. Below are images of a compound 4 washout slide at 7.8 μM showing a similar wavy gliding patterns in addition to circular gliding (c, d).
A gliding motility assay with a compound washout step was also performed to measure the reversibility of the compound's effects. The sporozoites were incubated at for a total of 20 min with the compound before they were washed and re-suspend and allowed to glide.

P. berghei sporozoites [3] = test: in vitro sporozoite gliding assay (CSP trails on anti-CSP coated slides); assay type: cell-based; details: for effect on gliding motility (comparison among the five compounds): 250-31.25 μM; for share of gliding sporozoites that were low gliding (less than 10 trails) / sporozoites gliding: lowest concentration of compound (31.25 μM)
Method: Compounds selected from the initial hit list were tested using in vitro gliding assays. Five compounds were selected for dose dependent testing on gliding motility based on early crystallographic experiments and first round gliding assay experiments at high concentration.
P. berghei sporozoites were purified from mosquitoes, incubated with compound, and allowed to glide on anti-CSP coated slides. The CSP-trails deposited by the gliding parasites were detected with anti-CSP antibodies. Trails were quantified for each sporozoite. The ability of each sporozoite to glide was categorized as no gliding (0 trails), and low (<10 trails), medium (10-20 trails), and high gliding (>20 trails).
In the DMSO control, more than 90% of sporozoites deposited trails, with >60% classified as medium and high gliding (>10 trails). […] At lower concentrations of compounds, the sporozoites did start to recover their gliding ability. However, for compound 4 at the lowest concentration of compound, less than 60% of the sporozoites were gliding and when they did glide, 90% of those sporozoites were depositing less than 10 trails and upon inspection of multiple fields, they typically could only complete one circular trail. For compound 18, less than 25% of sporozoites were able to glide at the lowest compound concentration and 75% of those sporozoites were low gliding, with less than 10 trails deposited; however, these low gliding parasites typically deposited more than 1 trail, unlike those from compound 4. […] However, from this single assay, it is not possible to assess whether the compounds were directly affecting the motor through the proposed TRAP-Aldolase interaction, by affecting an energy production step necessary to generate ATP for motor power, or by cytocidal effect.

P. berghei sporozoites [4] = test: trail radius of gliding sporozoites (ImageJ); assay type: cell-based; details: 62.5 μM; 130-150 trail radii; p-value <0.0001
Method: The trail radius was measured using ImageJ and the statistical analyses to determine standard error mean and t-test were performed using GraphPad.
The gliding phenotype was altered to determine whether the compounds were having off-target effects. While quantifying the number of deposited trails, the trail diameter in the presence of compounds was altered. An altered trail diameter is more likely due to either a direct effect on the motor or an effect on sporozoite shape. The diameter of the circular trails deposited by the parasites in the DMSO control was measured and in the presence of three compounds at 62.5 μM (FIG. 8). This concentration was chosen because at higher concentrations, there were not enough sporozoite trails to measure to do a statistical analysis of the results. Using ImageJ, circles were fit to trails in multiple images to measure 130-150 trail radii. The average trail radii increased in the presence of compounds 4, 17, and 18 with a p-value <0.0001. The increase in average trail size was 6.3 microns, 2.5 microns, and 3.6, for compounds 4, 17, and 18, respectively.

[5] = biological target: P. falciparum aldolase in the presence of TRAP (Plasmodium falciparum, UniProt Q7KQL9); test: aldolase enzyme activity assay, P. falciparum aldolase in the presence of TRAP; assay type: biochemical; details: in the presence of TRAP and the compounds
Sequence of P. falciparum aldolase in the presence of TRAP (Q7KQL9 whole entry): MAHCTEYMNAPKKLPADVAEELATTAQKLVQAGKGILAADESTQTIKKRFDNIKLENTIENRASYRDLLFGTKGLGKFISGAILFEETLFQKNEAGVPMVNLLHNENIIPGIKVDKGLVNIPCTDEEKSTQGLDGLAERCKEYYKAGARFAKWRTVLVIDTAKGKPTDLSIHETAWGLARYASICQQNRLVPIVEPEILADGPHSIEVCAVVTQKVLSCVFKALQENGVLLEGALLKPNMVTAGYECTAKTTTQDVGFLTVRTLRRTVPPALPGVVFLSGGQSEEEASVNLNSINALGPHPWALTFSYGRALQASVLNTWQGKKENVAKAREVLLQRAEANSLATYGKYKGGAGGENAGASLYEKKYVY
Excerpt: (§1) FIGS. 16A-16D depict an aldolase enzyme activity assay. (A) Cartoon and surface representation of aldolase with TRAPpep bound (magenta, sticks) (PDB entry 2pc4), overlapping the F16BP (green, sticks) substrate binding site (PDB entry 4ald), via PyMOL. (B) Coupled enzyme assay to measure aldolase activity via NADH consumption as measured at 340 nm. (C) Concentration-dependent effect of compounds on PfAldolase inhibition in the presence of PbTRAP peptide. Activity is normalized to the PbTRAP control, which reduces Vmax to 50% of enzyme without PbTRAP. (D) PfAldolase activity in the presence of compounds to determine direct inhibition of enzyme by the compounds. Activity is normalized to the PfAldolase control measured Vmax. Standard error means plotted for activity assays and standard deviation for SPR data.
(§2) Dose-Dependent Enzymatic Inhibition of Compounds on P. falciparum Aldolase and Rabbit Aldolase as a Surrogate for Human Aldolase.

Plasmodium parasite = test: cytocidal activity (assay not specified); assay type: cell-based; details: 60 μM concentration
Excerpt: As described herein, inferring from sequence identity between TRAP and CTRP, the Aldolase-CTRP complex is inhibited during the mosquito stage.

rabbit aldolase = biological target: T1, rabbit aldolase (Oryctolagus cuniculus, UniProt P00883); test: aldolase enzyme activity assay, rabbit aldolase; assay type: biochemical; details: surrogate for human aldolase
T1 sequence (P00883 1-364): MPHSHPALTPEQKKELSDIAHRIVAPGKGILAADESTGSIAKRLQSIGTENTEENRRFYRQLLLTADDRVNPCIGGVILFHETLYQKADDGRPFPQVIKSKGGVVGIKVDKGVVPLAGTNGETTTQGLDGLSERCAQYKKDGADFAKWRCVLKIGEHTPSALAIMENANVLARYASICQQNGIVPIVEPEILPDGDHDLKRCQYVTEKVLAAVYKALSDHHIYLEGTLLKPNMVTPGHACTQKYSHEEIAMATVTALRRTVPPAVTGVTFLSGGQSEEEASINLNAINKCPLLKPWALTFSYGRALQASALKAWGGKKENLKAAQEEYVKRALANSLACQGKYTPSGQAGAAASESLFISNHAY
Excerpt: as §1, §2

| Compound | effect on viability in LIVE/DEAD assay (sporozoites [1]) | reversibility of gliding effect after washout (sporozoites [2]; 31.25 μM) | reversibility of gliding effect after washout (sporozoites [2]; 62.5 μM) | reversibility of gliding effect after washout (sporozoites [2]; 15.625 and 7.8125 μM, 20 min incubation before wash) | effect on gliding motility (comparison among the five compounds) (P. berghei sporozoites [3]) | share of gliding sporozoites that were low gliding (less than 10 trails) (P. berghei sporozoites [3]) [%] | sporozoites gliding (P. berghei sporozoites [3]) | increase in average trail size (trail radius) vs DMSO control (P. berghei sporozoites [4]) [microns] | reversibility of gliding effect after washout (sporozoites [2]; any concentration) | number of high gliding parasites after washout, relative to DMSO control (sporozoites [2]; less than 8 μM) [%] | total number of parasites gliding after washout (sporozoites [2]; less than 8 μM) | inhibition of P. falciparum aldolase [5] | cytocidal activity (Plasmodium parasite) | enzyme inhibition on rabbit aldolase (rabbit aldolase) |
| --- | --- | --- | --- | --- | --- | --- | --- | --- | --- | --- | --- | --- | --- | --- |
| CCCCn1c(N)c(C(=O)NCc2ccccc2)c2nc3ccccc3nc21 [Compound 18, 2-amino-N-benzyl-1-butyl-1H-pyrrolo[2,3-b]quinoxaline-3-carboxamide] | relatively mild | the number of high-gliding parasites increased | little reversibility | completely reversible | greatest effect | 75 | less than 25% | 3.6 |  |  |  |  |  |  |
| Brc1ccc(Nc2nc3ccccc3nc2Nc2ccc(Br)cc2)cc1 [Compound 4, N,N′-bis(4-bromophenyl)-2,3-quinoxalinediamine] | greater decrease in viability |  |  |  | greatest effect | 90 | less than 60% | 6.3 | no complete reversibility | 10 | comparable to wild type | inhibited | cytocidal activity | no enzyme inhibition |
